Where two headings read alike, the source gives them in different places. A value given as a limit tells only on which side of the number the result lay.

Assay [1] has as its system Abeta total produced and secreted by SKNBE2 cells (BACE1). Description: BACE1 cellular αLisa assay in SKNBE2 cells, Abeta total. It is filed as cell-based, human. To be noted: SKNBE2 cells expressing hAPP695, 18 hours incubation; for IC50: Homo sapiens, SKNBE2, 18 h, read-out: Cellular αLisa assay in SKNBE2 cells Abetatotal pIC50 (converted). The procedure:
(§1) BACE1 Cellular αLisa Assay in SKNBE2 Cells
(§2) In two αLisa assays the levels of Abeta total and Abeta 1-42 produced and secreted into the medium of human neuroblastoma SKNBE2 cells are quantified. The assay is based on the human neuroblastoma SKNBE2 expressing the wild type Amyloid Precursor Protein (hAPP695). The compounds are diluted and added to these cells, incubated for 18 hours and then measurements of Abeta 1-42 and Abeta total are taken. Abeta total and Abeta 1-42 are measured by sandwich αLisa. αLisa is a sandwich assay using biotinylated antibody AbN/25 attached to streptavidin coated beads and antibody Ab4G8 or cAb42/26 conjugated acceptor beads for the detection of Abeta total and Abeta 1-42 respectively. In the presence of Abeta total or Abeta 1-42, the beads come into close proximity. The excitation of the donor beads provokes the release of singlet oxygen molecules that trigger a cascade of energy transfer in the acceptor beads, resulting in light emission. Light emission is measured after 1 hour incubation (excitation at […] and emission at 615 nm).
(§3) A best-fit curve is fitted by a minimum sum of squares method to the plot of % Controlmin versus compound concentration.

Assay [2] deals with Abeta 1-42 produced and secreted by SKNBE2 cells (BACE1). Description: BACE1 cellular αLisa assay in SKNBE2 cells, Abeta 1-42. It is filed as cell-based, human. The note with it: SKNBE2 cells expressing hAPP695, 18 hours incubation; for IC50: Homo sapiens, SKNBE2, 18 h, read-out: Cellular αLisa assay in SKNBE2 cells Abeta 42 pIC50 (converted). The procedure:
as §1, §2, §3

In the next assay the target is T1, BACE1 (Homo sapiens, UniProt P56817).
T1 construct: recombinant BACE1 protein in a final concentration of 0.04 g/ml
T1 sequence (P56817 46-501): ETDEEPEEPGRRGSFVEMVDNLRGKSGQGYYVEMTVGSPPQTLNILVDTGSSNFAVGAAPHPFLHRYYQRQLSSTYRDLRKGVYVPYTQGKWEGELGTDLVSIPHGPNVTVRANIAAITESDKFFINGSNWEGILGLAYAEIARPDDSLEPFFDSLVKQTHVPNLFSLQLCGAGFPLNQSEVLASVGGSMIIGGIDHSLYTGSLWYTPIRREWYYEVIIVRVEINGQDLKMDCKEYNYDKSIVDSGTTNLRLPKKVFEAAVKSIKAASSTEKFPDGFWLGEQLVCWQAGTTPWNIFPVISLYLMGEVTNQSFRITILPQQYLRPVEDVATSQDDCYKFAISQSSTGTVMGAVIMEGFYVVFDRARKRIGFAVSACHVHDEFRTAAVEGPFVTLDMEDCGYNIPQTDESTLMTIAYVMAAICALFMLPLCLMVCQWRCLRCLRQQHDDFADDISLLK
Description: BACE1 biochemical FRET based assay.

For a further assay, the target named is T2, BACE2 (Homo sapiens, UniProt Q9Y5Z0).
T2 construct: recombinant BACE2 protein in a final concentration of 0.4 μg/ml
T2 sequence (Q9Y5Z0 63-518): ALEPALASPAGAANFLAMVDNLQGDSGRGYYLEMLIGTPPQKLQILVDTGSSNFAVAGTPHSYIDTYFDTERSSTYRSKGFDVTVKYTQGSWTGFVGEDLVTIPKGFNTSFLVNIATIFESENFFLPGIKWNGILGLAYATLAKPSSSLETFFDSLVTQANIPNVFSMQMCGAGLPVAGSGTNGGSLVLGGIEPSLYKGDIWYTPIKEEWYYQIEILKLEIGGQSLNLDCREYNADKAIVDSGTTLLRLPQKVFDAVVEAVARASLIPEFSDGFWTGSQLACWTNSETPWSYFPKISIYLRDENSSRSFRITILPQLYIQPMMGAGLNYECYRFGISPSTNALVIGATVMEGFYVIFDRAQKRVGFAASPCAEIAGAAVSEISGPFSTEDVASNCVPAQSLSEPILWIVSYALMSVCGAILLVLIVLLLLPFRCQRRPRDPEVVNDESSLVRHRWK
Kind of assay: BACE2 biochemical FRET based assay. The note with it: recombinant BACE2, 450 min, pH 5.0; read-out: BACE2 Biochemical FRET based assay pIC50 (converted).

[3] abbreviates: recombinant BACE1, 450 min, pH 5.0, read-out: BACE1 Biochemical FRET based assay pIC50 (converted).
Where [4] appears, read: Table 10, comparison with WO2012/085038 compounds, read-out: IC50 (nM), BACE1 biochemical FRET based assay.

For the compound `COc1cnc(C(=O)Nc2ccc(F)c(C3(CF)Cn4cncc4C(N)=N3)c2)cn1` (racemic) [Compound 13, (rac)-N-{3-[8-Amino-6-(fluoromethyl)-5,6-dihydroimidazo[1,5-a]pyrazin-6-yl]-4-fluorophenyl}-5-methoxypyrazine-2-carboxamide], the IC50 was 3.63 nM in assay [1], 3.63 nM in assay [2], 8.32 nM at BACE1 (setting [3]) and 93.3 nM at BACE2.
Consider `COc1cnc(C(=O)Nc2ccc(F)c(C3(CF)Cn4cncc4C(N)=N3)c2)cn1` (single isomer, unassigned) [Compound 14, N-{3-[8-amino-6-(fluoromethyl)-5,6-dihydroimidazo[1,5-a]pyrazin-6-yl]-4-fluorophenyl}-5-methoxypyrazine-2-carboxamide (R or S)], for which the “Cellular αLisa assay in SKNBE2 cells Abetatotal pIC50” value in assay [1] is 6.06. Also, the “Cellular αLisa assay in SKNBE2 cells Abeta 42 pIC50” value in assay [2] came to 6.07. Further, the values for the IC50 at BACE1 (setting [3]) and on BACE2 were 933 nM and 5370 nM, respectively.
The like results for `COc1cnc(C(=O)Nc2ccc(F)c(C3(CF)Cn4cncc4C(N)=N3)c2)cn1` (single isomer, unassigned) [Compound 15, N-{3-[8-amino-6-(fluoromethyl)-5,6-dihydroimidazo[1,5-a]pyrazin-6-yl]-4-fluorophenyl}-5-methoxypyrazine-2-carboxamide (S or R)] were, in that order, 8.74, 8.74, 2.24 nM and 37.2 nM.
In the case of `C[C@@]1(c2cc(NC(=O)c3ccc(Cl)cn3)ccc2F)Cn2c(C(F)F)cnc2C(N)=N1` [74 (WO2012/085038), reference compound], the IC50 at BACE1 (setting [4]) turned out to be 18.6 nM.
Same read-out and setting: the same measure for `C[C@@]1(c2cc(NC(=O)c3ccc(C#N)cn3)ccc2F)Cn2c(C(F)F)cnc2C(N)=N1` [75 (WO2012/085038), reference compound]: 13.8 nM; for `COc1cnc(C(=O)Nc2ccc(F)c([C@]3(C)Cn4c(C(F)F)cnc4C(N)=N3)c2)cn1` [76 (WO2012/085038), reference compound]: 83.2 nM.
Take `COc1cnc(C(=O)Nc2ccc(F)c([C@]3(C)Cn4cncc4C(N)=N3)c2)cn1` [Compound 1, N-{3-[(6R)-8-Amino-6-methyl-5,6-dihydroimidazo[1,5-a]pyrazin-6-yl]-4-fluorophenyl}-5-methoxypyrazine-2-carboxamide]: the IC50 was 2.75 nM in assay [1], 3.31 nM in assay [2], 4.9 nM at BACE1 (setting [3]) and 55 nM on BACE2.
The like results for `C[C@@]1(c2cc(-c3cncnc3)ccc2F)Cn2cncc2C(N)=N1` [Compound 2, (6R)-6-(2-Fluoro-5-pyrimidin-5-ylphenyl)-6-methyl-5,6-dihydroimidazo[1,5-a]pyrazin-8-amine] were, in that order, 229 nM, 245 nM, 708 nM and 7240 nM.
As for `C[C@@]1(c2cc(NC(=O)c3ccc(Cl)cn3)ccc2F)Cn2cncc2C(N)=N1` [Compound 3, N-{3-[(6R)-8-amino-6-methyl-5,6-dihydroimidazo[1,5-a]pyrazin-6-yl]-4-fluorophenyl}-5-chloropyridine-2-carboxamide], the IC50 is 2.34 nM in assay [1]; 2.95 nM in assay [2]; 3.16 nM on BACE1 (setting [4]); 3.16 nM at BACE1 (setting [3]); 4.07 nM on BACE2.
Regarding `Cc1ncn2c1C(N)=N[C@](C)(c1cc(-c3cncnc3)ccc1F)C2` [Compound 6, (6R)-6-(2-Fluoro-5-pyrimidin-5-ylphenyl)-1,6-dimethyl-5,6-dihydroimidazo[1,5-a]pyrazin-8-amine], the IC50 (in assay [1]; in assay [2]; at BACE1 (setting [3])) was greater than 10000 nM in each case.
Consider `Cc1cc(C#N)cnc1C(=O)Nc1ccc(F)c([C@]2(C)Cn3cncc3C(N)=N2)c1` [Compound 7, N-{3-[(6R)-8-amino-6-methyl-5H-imidazo[1,5-a]pyrazin-6-yl]-4-fluoro-phenyl}-5-cyano-3-methyl-pyridine-2-carboxamide], for which the IC50 in assay [1] was 5.5 nM; in assay [2], 6.17 nM; at BACE1 (setting [3]) it was 3.98 nM; on BACE2, 8.13 nM.
In the case of `C[C@@]1(c2cc(NC(=O)c3ccc(F)cn3)ccc2F)Cn2cncc2C(N)=N1` [Compound 8, N-{3-[(6R)-8-amino-6-methyl-5,6-dihydroimidazo[1,5-a]pyrazin-6-yl]-4-fluorophenyl}-5-fluoropyridine-2-carboxamide], the IC50 is 17.4 nM in assay [1], 19.1 nM in assay [2], 22.4 nM at BACE1 (setting [3]) and 12.6 nM at BACE2.
The like results for `C[C@@]1(c2cc(NC(=O)c3ccc(C#N)cn3)ccc2F)Cn2c(cnc2C#N)C(N)=N1` [Compound 9, N-{3-[(6R)-8-Amino-3-cyano-6-methyl-5,6-dihydroimidazo[1,5-a]pyrazin-6-yl]-4-fluorophenyl}-5-cyanopyridine-2-carboxamide] were, in that order, 2.24 nM, 2 nM, 1.45 nM and 2.14 nM.
On to `C[C@@]1(c2cc(NC(=O)c3ccc(C#N)cn3)ccc2F)Cn2c(cnc2C(F)F)C(N)=N1` [Compound 10, N-{3-[(6R)-8-amino-3-(difluoromethyl)-6-methyl-5,6-dihydroimidazo[1,5-a]pyrazin-6-yl]-4-fluorophenyl}-5-cyanopyridine-2-carboxamide], for which the IC50 in assay [1] is 1.07 nM; in assay [2] it was 0.955 nM; at BACE1 (setting [4]), 3.47 nM; at BACE1 (setting [3]), 3.47 nM; at BACE2 it was 15.8 nM.
`C[C@@]1(c2cc(NC(=O)c3ccc(Cl)cn3)ccc2F)Cn2c(cnc2C(F)F)C(N)=N1` [Compound 11, N-{3-[(6R)-8-amino-3-(difluoromethyl)-6-methyl-5,6-dihydroimidazo[1,5-a]pyrazin-6-yl]-4-fluoropheny}-5-chloropyridine-2-carboxamide]: the IC50 in assay [1] was 0.631 nM; in assay [2], 0.575 nM; on BACE1 (setting [4]), 3.16 nM; on BACE1 (setting [3]) it was 3.16 nM; on BACE2 it was 2.75 nM.
Regarding `COc1cnc(C(=O)Nc2ccc(F)c([C@]3(C)Cn4c(cnc4C(F)F)C(N)=N3)c2)cn1` [Compound 12, N-{3-[(6R)-8-amino-3-(difluoromethyl)-6-methyl-5,6-dihydroimidazo[1,5-a]pyrazin-6-yl]-4-fluoropheny}-5-methoxypyrazine-2-carboxamide], the IC50 is 0.851 nM in assay [1]; 0.813 nM in assay [2]; 3.8 nM at BACE1 (setting [4]); 3.8 nM on BACE1 (setting [3]); 24 nM on BACE2.
Consider `C[C@@]1(c2cc(NC(=O)c3ccc(C#N)cn3)ccc2F)Cn2c(cnc2CC2CC2)C(N)=N1` [Compound 16, N-{3-[(6R)-8-Amino-3-(cyclopropylmethyl)-6-methyl-5,6-dihydroimidazo[1,5-a]pyrazin-6-yl]-4-fluorophenyl}-5-cyanopyridine-2-carboxamide], for which the IC50 in assay [1] was 2.14 nM; in assay [2], 1.91 nM; at BACE1 (setting [3]), 1.38 nM; on BACE2, 9.55 nM.
Take `CC(=O)NCc1ncc2n1C[C@@](C)(c1cc(NC(=O)c3ccc(C#N)cn3)ccc1F)N=C2N` [Compound 17, N-(3-{(6R)-3-[(Acetylamino)methyl]-8-amino-6-methyl-5,6-dihydroimidazo[1,5-a]pyrazin-6-yl}-4-fluorophenyl)-5-cyanopyridine-2-carboxamide]: the IC50 in assay [1] was 5.25 nM; in assay [2], 4.79 nM; on BACE1 (setting [3]), 1.86 nM.

Source of the values: US9580433B2 (Janssen Pharmaceutica NV, priority 2013, dated 2017).
